Assay results published in PubChem BioAssay AID1053191 (Broad Institute, 2014).
Results filed as inconclusive are left out. Calls of active or inactive are those of the source.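 The calls were made as follows: active = compounds whose fitted half-maximal potency for killing cells lies within twice their highest tested dose; inconclusive = flat curve with 30 to 70% signal loss, or poor fit; inactive = the rest.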

tested on: not listed separately; assay: cytotoxicity in HEK293 cells, dose response, cytotoxicity control, cell-based, dry powder samples (AID 1053191); conditions: HEK293T viability, ATP luminescence, 72 h; at 50 µM (top of the series)

| Structure (SMILES) | activity change, negative = cytotoxic |
| --- | --- |
| CNc1ccccc1C(C)(C)c1cc(-c2cccc(OC)c2)no1 | -41.9% (inactive) |
| Cc1cc(C)c(S(=O)(=O)NCCn2c(C)cc3ccccc32)c(C)c1 | -16.1% (inactive) |
| O=C(O)C1CCN(c2nc(-c3ccccc3)c3cc(Br)ccc3n2)CC1 | 13.4% (inactive) |
| Cc1cc2ccccc2n1CCNC(=O)COc1ccc2ccccc2c1 | -12.6% (inactive) |
| CCc1ccc(-n2c(=S)sc3c(=O)n(-c4ccccc4C)c(SCC(=O)O)nc32)cc1 | 12.6% (inactive) |
| Cc1ccc(S(=O)(=O)NCc2ccc3c(c2)cc(C)n3C)cc1 | -7.83% (inactive) |
| Cc1ccc(CSc2nc3[nH]ncc3c(=O)[nH]2)cc1 | -29.4% (inactive) |
| COc1ccc(Nc2ccccc2N)cc1 | -11.7% (inactive) |
| Cc1cc2cc(CNC(=O)Nc3ccc(Cl)c(Cl)c3)ccc2n1C | -15.7% (inactive) |
| CCc1cccc2c1NC1(CCCC1)CC2C (centres undefined) | -4.91% (inactive) |
| OCc1ccc(-c2nn(Cc3ccccc3)c3ccccc23)o1 | 4.83% (inactive) |
| Cc1cccc(NC(=O)NCc2ccc3c(c2)cc(C)n3C)c1 | -22.6% (inactive) |
| COc1cc(CC2C(=O)Nc3ccccc32)cc(C)c1O (centres undefined) | -16.6% (inactive) |

tested on: HEK293T viability, ATP luminescence, 72 h; assay: as above; conditions: not given

| Structure (SMILES) | AC50 |
| --- | --- |
| O=C(c1c(F)cccc1F)N(Cc1ccccc1)Cc1ccccc1 | 50 µM |
